Molecules are shown by their SMILES.

This is an account of results in paper PMC7883873, “Discovery of New Catalytic Topoisomerase II Inhibitors for Anticancer Therapeutics” (Frontiers in Oncology, 2021).

The subject of one data set is PC3. Description: Cell viability, MTS assay. The data set is classed as cell-based. Particulars: 0-20 µM; compared to AR-positive PCa cell lines. Here is the method: (§1) Cell proliferation rates were measured by using the CellTitre 96 AqueousOne kit (Promega) and bromodeoxyuridine (BrdU) assay kit (Millipore) according to the manufacturer’s protocol as we have described ([51]). Cytotoxicity was evaluated by using the commercial kit (CAT# 8078, ThermoFisher). Culture media was collected and used to measure lactate dehydrogenase (LDH) levels by a colorimetric method following the manufacture’s protocol (ThermoFisher). Cell cycling was assessed by using BrdU incorporation into S-phase DNA by using the APC BrdU flow kit (BD Pharmingen; Franklin Lakes, New Jersey) according to the manufacturer’s protocol. 1 mM of BrdU was added to cells and incubated for 6 h. Cells were incubated with anti-BrdU antibody and stained with 7-AAD before processing the cells for flow cytometry ([52]). Immunoblotting assays followed the standard protocol as we have reported ([51]–[53]).

Data set [1] concerns the target T1, TOP2A (Homo sapiens, UniProt P11388). Description: DNA cleavage assay. The arrangement: full-length human TOP2A and TOP2B protein (TopoGEN and Inspiralis respectively); purchased TopoGEN TG1001 (human TOP2 assay kit). In kind it is biochemical. Particulars: co-treatment with 200 µM etoposide; 1, 100, 200 µM. The method, then: The reactions were incubated in 37C for 30 min and stopped by adding 2 µl of 10% SDS and 1 µl of 250 mM of EDTA, followed by the addition of 50 µg/ml of proteinase K at 45C for 30 min. The reaction was then resolved by electrophoresis on a 1% agarose gel containing […] ethidium bromide in TAE buffer at 60 V. DNA bands were visualized using a gel imager (Gel Doc™ EZ System) and quantified by using the Image Studio™ Lite Quantification Software.

The next data set addresses T2, full-length human TOP2B (Homo sapiens, UniProt Q02880).
T2 construct: full-length human TOP2A and TOP2B protein (TopoGEN and Inspiralis respectively); purchased Inspiralis HTB205
Description: EMSA with full-length protein. The data set is classed as binding. Particulars: 200 µM; 2 µM protein, 300 nM 5ZRF oligo. The method, then:
(§2) EMSA followed the standard protocols as we and others described with minor modifications ([54]–[56]). The double-strand DNA oligo, 5ZRF (AGCCGAGCTGCAGCTCGGCT labeled by IRDye700) was purchased from IDT (Coralville, USA). Human TOP2 (431–1193), TOP2A (TopoGEN) or TOP2B (Inspiralis) proteins were incubated with 300 nM of 5ZRF oligo in a standard 20 µl EMSA reaction in a reaction buffer containing 20 mM HEPES-NaOH, pH 7.4, 2 mM DTT, 3 mM MgCl2, 0.05% NP-40, protease inhibitors, and 0.1 µg poly[dI:dC]. After incubation for 30 min at 37C, reactions were loaded onto 4% non-denatured polyacrylamide gel in 0.5× TBE buffer. The DNA oligo bands were visualized by using the Li-Cor Odyssey 9120 Infrared Imaging System.

A further data set addresses T3, full-length human TOP2A (Homo sapiens, UniProt P11388).
T3 construct: full-length human TOP2A and TOP2B protein (TopoGEN and Inspiralis respectively); purchased TopoGEN TG1001 (human TOP2 assay kit)
Description: EMSA with full-length protein. In kind it is binding. Particulars: 200 µM; 2 µM protein, 300 nM 5ZRF oligo. Here is the method:
as §2

A further data set has as its system AR-v7. The data set is described as follows: Immunoblotting of AR protein levels. Particulars: LNCaP and LNCaP95 cells, 0-20 µM. In kind it is cell-based. Here is the method:
as §1

Another data set concerns AR full-length (AR-fl). Description: Immunoblotting of AR protein levels. In kind it is cell-based. Particulars: LNCaP and LNCaP95 cells, 0-20 µM. Here is the method: as §1
In another data set the target is TOP2B (Homo sapiens, UniProt Q02880). Description: Chromatin fractionation assay. The data set is classed as cell-based. The arrangement: endogenous in cells; host or cells: K562 (the thermal shift text says HeLa, the legend says K562); K562 for chromatin fractionation. Particulars: K562 cells, 0, 1, 20 µM, 24 hours. The method, then:
(§3) In the thermal shift assays, cells were treated with vehicle or T60 for 1 h and split into equal aliquots to be heated at 37 to 46°. Protein lyses were collected to perform immunoblotting assays with TOP2 antibodies (Abcam 12318, Santa Cruz sc-13059 & sc-365071). Our chromatin fractionation assays followed the protocol as previously described (Méndez & Stillman, 2000; Wysocka, Reilly, & Herr, 2001). Briefly, K562 cells (4 × 10 ([7]) cells/ml) were collected and re-suspended in buffer A (10 mM HEPES [pH 7.9], 10 mM KCl, 1.5 mM MgCl2, 0.34 M sucrose, 10% glycerol, 1 mM DTT, and protease inhibitor cocktail), before Triton X-100 was added to final concentration at 0.1%. Cells were then incubated on ice for 10 min, and nuclei were collected by centrifugation at speed of 1,300g for 4 min at 4°C. The nuclei were then washed once with buffer A and then incubated with buffer B (3 mM EDTA, 0.2 mM EGTA, 1 mM DTT, and protease inhibitor cocktail [ROCHE]) for 30 min in ice. Insoluble chromatin was collected by centrifugation at 1,700g for 4 min at 4°C, and washed once with buffer B. Chromatin associated proteins were extracted by incubation with Buffer C [500 mM Tris-HCl (pH 6.8), 500 mM NaCl, and protease inhibitor cocktail (ROCHE)] followed by brief sonication. The supernatant was collected to perform immunoblotting assays with TOP2 antibodies as we have described ([51]–[53]).

The target in data set [2] is T1, TOP2A. The data set is described as follows: Chromatin fractionation assay. Particulars: K562 cells, 0, 1, 20 µM, 24 hours. In kind it is cell-based. The arrangement: endogenous in cells; host or cells: K562 (the thermal shift text says HeLa, the legend says K562); K562 for chromatin fractionation. Here is the method: as §3
The next data set relates to phospho-H2AXγ expression. The data set is described as follows: Phospho-H2AXγ expression in multiple cancer cell models. The data set is classed as cell-based. Particulars: 5 µM, 4 hours. Here is the method: as §1
The subject of a further data set is salmon sperm DNA. Description: Ethidium bromide displacement assay. In kind it is binding. Particulars: increasing doses; 100 µg/ml DNA, 2 µg/ml ethidium bromide. The method, then: Ethidium bromide displacement assay was performed as previously described ([49], [50]) using Amsacrine (mAMSA) as a positive control. In a 20 µl reaction, compounds were mixed with 100 µg/ml of salmon sperm DNA and 2 µg/ml of ethidium bromide in a fluorescence buffer containing 10 mM HEPES, pH 7.9, 100 mM KCl, 5 mM MgCl2, 0.1 mM EDTA, pH 8.0. Triplicate reactions were subjected to fluorescence emission of 590 nm and excitation of 535 nm. Signals were detected by using the Multimode Microplate Reader, Infinite® F500.

The subject of data set [3] is AR proteins in LNCaP cells. Description: AR nuclear localization, cytoplasmic/nuclear western blotting. In kind it is cell-based. Particulars: 20 µM, 24 h.

T1 sequence (P11388 whole entry): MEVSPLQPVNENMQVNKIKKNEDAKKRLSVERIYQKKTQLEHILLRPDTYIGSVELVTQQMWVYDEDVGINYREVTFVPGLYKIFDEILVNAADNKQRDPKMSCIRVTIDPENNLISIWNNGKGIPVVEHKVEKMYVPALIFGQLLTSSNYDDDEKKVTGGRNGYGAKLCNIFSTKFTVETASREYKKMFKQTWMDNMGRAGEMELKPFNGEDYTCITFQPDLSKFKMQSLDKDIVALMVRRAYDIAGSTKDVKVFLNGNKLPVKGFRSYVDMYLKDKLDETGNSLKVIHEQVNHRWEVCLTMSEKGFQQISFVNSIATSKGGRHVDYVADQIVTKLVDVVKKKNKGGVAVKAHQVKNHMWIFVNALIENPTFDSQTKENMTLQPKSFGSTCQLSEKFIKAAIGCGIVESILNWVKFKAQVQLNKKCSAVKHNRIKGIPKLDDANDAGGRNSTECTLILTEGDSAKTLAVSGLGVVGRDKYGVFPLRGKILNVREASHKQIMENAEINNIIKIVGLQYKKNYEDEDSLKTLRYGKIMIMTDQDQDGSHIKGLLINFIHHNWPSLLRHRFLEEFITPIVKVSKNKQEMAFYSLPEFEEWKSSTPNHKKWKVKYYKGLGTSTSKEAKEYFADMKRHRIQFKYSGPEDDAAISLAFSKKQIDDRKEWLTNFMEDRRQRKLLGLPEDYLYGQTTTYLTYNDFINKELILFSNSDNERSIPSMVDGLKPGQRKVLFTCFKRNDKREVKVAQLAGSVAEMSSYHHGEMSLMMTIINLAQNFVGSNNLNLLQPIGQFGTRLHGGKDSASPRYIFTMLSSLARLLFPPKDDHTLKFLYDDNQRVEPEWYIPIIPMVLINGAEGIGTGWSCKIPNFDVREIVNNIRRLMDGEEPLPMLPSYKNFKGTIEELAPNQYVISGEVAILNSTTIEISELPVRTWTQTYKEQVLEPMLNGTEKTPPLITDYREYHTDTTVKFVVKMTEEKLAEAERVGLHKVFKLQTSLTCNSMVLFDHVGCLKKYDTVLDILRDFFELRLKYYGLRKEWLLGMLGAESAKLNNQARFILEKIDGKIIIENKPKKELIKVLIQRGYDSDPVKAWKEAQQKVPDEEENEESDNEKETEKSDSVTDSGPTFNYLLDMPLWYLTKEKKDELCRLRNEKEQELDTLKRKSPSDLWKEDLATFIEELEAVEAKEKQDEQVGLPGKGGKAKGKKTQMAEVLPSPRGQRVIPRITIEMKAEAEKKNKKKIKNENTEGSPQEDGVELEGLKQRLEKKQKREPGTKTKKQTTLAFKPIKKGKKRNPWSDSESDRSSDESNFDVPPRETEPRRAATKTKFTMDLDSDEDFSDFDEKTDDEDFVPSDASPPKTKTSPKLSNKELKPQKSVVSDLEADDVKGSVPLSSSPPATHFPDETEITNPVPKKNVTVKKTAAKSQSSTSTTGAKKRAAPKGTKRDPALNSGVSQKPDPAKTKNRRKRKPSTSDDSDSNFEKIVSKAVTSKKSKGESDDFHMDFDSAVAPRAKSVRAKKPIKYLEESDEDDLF
TOP2B, sequence (Q02880 2-1626 limits assumed): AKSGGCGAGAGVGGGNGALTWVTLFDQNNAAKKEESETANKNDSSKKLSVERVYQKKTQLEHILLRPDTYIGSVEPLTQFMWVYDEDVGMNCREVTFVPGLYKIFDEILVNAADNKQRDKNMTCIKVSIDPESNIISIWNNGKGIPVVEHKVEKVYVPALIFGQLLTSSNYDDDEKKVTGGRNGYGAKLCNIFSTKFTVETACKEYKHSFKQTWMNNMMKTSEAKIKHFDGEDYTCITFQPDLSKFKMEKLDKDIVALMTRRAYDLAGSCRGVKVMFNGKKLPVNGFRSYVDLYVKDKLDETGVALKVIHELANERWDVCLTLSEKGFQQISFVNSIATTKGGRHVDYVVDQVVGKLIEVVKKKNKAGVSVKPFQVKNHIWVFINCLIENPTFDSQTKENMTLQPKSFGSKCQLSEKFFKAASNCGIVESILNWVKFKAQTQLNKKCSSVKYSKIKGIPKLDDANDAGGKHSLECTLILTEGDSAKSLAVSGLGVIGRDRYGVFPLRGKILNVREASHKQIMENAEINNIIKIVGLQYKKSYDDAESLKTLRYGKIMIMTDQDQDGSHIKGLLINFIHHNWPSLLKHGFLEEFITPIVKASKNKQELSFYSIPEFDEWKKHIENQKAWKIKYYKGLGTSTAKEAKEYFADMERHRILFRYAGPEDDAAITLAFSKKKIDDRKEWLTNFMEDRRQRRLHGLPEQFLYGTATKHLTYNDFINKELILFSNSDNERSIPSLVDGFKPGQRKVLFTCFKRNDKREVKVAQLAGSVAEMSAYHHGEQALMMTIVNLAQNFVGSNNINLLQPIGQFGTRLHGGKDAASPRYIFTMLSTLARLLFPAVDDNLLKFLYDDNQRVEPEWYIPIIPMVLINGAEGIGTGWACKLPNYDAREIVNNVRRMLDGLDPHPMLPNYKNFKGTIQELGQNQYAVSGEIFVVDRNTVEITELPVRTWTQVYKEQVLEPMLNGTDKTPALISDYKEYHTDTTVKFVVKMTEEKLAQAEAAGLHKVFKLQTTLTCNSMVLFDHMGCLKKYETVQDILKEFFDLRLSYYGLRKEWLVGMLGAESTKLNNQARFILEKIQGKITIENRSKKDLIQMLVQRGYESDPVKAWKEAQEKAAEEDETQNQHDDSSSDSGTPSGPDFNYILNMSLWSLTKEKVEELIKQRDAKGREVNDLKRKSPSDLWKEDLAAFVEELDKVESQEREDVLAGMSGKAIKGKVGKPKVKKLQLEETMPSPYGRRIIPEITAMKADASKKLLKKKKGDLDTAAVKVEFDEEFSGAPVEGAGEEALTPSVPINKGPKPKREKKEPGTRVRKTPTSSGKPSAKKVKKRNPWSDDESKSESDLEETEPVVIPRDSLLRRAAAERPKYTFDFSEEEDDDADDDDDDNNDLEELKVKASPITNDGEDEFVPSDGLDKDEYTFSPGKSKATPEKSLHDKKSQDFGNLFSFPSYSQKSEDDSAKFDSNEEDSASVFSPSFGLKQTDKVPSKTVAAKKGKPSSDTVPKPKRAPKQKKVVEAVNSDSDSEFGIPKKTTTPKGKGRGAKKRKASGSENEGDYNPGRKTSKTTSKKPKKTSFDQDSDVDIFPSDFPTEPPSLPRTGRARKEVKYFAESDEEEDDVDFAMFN
T2 sequence (Q02880 whole entry): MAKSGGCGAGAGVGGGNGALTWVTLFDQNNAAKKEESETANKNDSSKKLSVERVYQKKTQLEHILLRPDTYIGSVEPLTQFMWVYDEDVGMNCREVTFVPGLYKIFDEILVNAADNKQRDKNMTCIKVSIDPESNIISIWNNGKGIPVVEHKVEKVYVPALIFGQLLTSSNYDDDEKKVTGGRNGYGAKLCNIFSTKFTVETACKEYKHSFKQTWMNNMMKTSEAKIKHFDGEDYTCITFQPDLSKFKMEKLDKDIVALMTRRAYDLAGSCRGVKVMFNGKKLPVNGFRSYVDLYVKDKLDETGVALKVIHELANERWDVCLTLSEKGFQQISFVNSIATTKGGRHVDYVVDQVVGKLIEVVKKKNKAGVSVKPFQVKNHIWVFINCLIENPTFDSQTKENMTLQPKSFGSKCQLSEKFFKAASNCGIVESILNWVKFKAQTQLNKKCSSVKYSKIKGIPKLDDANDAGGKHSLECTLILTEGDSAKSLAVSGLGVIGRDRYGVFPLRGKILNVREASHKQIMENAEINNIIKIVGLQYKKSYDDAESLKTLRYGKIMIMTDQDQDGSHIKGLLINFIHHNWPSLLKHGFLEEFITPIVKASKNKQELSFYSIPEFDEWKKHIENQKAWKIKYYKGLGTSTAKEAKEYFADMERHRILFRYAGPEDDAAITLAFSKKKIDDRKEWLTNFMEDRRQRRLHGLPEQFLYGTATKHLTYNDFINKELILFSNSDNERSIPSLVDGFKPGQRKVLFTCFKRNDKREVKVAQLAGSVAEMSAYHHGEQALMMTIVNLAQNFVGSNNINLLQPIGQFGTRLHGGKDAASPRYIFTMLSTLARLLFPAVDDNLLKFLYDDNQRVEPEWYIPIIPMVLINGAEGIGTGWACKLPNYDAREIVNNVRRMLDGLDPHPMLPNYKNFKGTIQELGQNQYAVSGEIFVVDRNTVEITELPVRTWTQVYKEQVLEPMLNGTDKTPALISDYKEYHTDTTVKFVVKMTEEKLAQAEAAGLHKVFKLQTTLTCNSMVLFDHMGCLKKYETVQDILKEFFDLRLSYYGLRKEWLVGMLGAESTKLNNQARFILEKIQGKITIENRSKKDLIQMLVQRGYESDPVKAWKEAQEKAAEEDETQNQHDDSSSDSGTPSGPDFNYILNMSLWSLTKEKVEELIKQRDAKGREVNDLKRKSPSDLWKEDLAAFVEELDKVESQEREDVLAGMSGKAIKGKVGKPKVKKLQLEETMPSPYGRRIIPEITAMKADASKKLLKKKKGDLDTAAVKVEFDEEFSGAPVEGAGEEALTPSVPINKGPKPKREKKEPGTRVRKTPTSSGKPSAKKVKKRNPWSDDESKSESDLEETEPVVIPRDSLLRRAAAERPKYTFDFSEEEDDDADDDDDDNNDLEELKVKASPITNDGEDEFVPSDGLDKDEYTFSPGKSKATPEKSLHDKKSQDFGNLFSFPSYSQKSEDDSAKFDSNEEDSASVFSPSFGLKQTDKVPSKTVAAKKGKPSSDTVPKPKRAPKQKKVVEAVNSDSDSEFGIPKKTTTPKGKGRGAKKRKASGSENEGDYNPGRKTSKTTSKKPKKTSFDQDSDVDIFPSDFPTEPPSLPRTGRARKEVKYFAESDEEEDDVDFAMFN
T3 sequence (P11388 whole entry): as the sequence (P11388 whole entry) above

For the compound `O=C(Nc1ccc(Nc2ccccc2)cc1)c1ccc[nH]c1=S` [T60], the “Cell viability, PC3” value in the data set on PC3 is recorded as “to a much less extent”. For the same compound, on TOP2A [1], the “Prevention of etoposide-induced DNA cleavage, TOP2A” value is reported as “prevented”. The “Interruption of mobility retarded band, full-length TOP2B” value at full-length human TOP2B is listed as “interrupted”. Also, at full-length human TOP2A, the “Interruption of mobility retarded band, full-length TOP2A” value is given as “interrupted”. The “Protein levels of AR-v7” value in the data set with AR-v7 is listed as “inhibited the protein levels”. For the same compound, the “Protein levels of AR full-length” value with AR full-length (AR-fl) is reported as “inhibited the protein levels”. The “TOP2B association with chromatin” value at TOP2B is recorded as “reduced”. Further, the “TOP2A association with chromatin” value at TOP2A [2] is recorded as “reduced”. In addition, the “DNA damage (phospho-H2AXγ expression) in all cell models” value with phospho-H2AXγ expression is on record as “not accompanied by DNA damage”. The “Fluorescence of ethidium bromide/DNA complex (DNA intercalation)” value with salmon sperm DNA was “does not intercalate with DNA”. Also, the “Nuclear localization of AR proteins, LNCaP” value in [3] was “reduced nuclear localization”.
